Results published in patent US20140371074A1, “METHOD TO INCREASE PLANT YIELD” (priority 2012, published 2014).

What was measured:
Format in all cases: in vivo
[1] = test system: soybean Latham 2767 Roundup Ready; assay: Field: seed treatment with 2,4-D solution 1X-10X, Laurel, Iowa (Table 6); details: 1X~0.0002968 lb a.e.
Description: Previously untreated soybean seeds were treated with between 1X to 10X of 2,4-D solution, where 1X is equivalent to approximately 0.0002968 pounds acid equivalent of 2,4-D. The seed variety was Latham 2767 Roundup Ready seeds and seeds were planted in Laurel, Iowa with a row width of 30 inches. Plants were sprayed with foliar insecticide and fungicide.

[2] = test system: soybean cultivars L2084R2, L2711R2X; assay: Field 2012: 2,4-D Low Vol 4 + crop oil drizzled onto soil at R1 stage, Alexander, Iowa (Table 2a)
Description: Plants were treated by drizzling via low pressure spraying the 2,4-D solution onto the soil along each side of the rows when plants are at the R1 stage of growth. The date of planting was May 15, 2012 and the date of harvest was Oct. 2, 2012 at plots in Alexander, Iowa (Table 2a) and Laurel, Iowa (Table 2b). Plants were grown from Roundup Ready seed and were sprayed with glyphosate for weed control. Plants were treated with between 1X and 5.5X of 2,4-D solution mixed with crop oil at 15.3 ounces of 2,4-D Low Vol 4 plus 0.32 ounces crop oil per gallon, where 1X is equivalent to approximately 0.45 pounds acid equivalent of 2,4-D. Two repetitions were performed at different plots. […] The moisture percentages were used in correcting each yield to a 13% moisture basis.

[3] = test system: soybean variety Asgrow 2933; assay: Field: side dress with 2,4-D Low Vol 4 solution, Laurel, Iowa (Table 3); details: for Percent of control: yield vs untreated control
Description: Plants were grown from Roundup Ready variety Asgrow 2933 seed that was treated with accelron (Monsanto) prior to planting. Plants were side dressed by application with a 3-point cultivator modified to spray on the ground in front of the shanks, the shanks then mix the 2,4-D mixture with the soil and move the mixture closer to the plant roots. Plants were treated with between 1X and 4X of 2,4-D Low Vol 4 solution, where 1X is equivalent to approximately 0.19 pounds acid equivalent of 2,4-D. Plants were grown with a row width of 30 inches and row length of 562 feet.

[4] = 1.0X Rate, L2084R2, 1X~0.45 lb a.e.
[5] = 1.0X Rate, L2711R2X, 1X~0.45 lb a.e.
[6] = 1.5X Rate, L2084R2, 1X~0.45 lb a.e.
[7] = 1.5X Rate, L2711R2X, 1X~0.45 lb a.e.
[8] = 2.0X Rate, L2084R2, 1X~0.45 lb a.e.
[9] = 2.0X Rate, L2711R2X, 1X~0.45 lb a.e.
[10] = 2.5X Rate, L2084R2, 1X~0.45 lb a.e.
[11] = 2.5X Rate, L2711R2X, 1X~0.45 lb a.e.
[12] = 3.0X Rate, L2084R2, 1X~0.45 lb a.e.
[13] = 3.0X Rate, L2711R2X, 1X~0.45 lb a.e.
[14] = 3.5X Rate, L2084R2, 1X~0.45 lb a.e.
[15] = 3.5X Rate, L2711R2X, 1X~0.45 lb a.e.
[16] = 4.0X Rate, L2084R2, 1X~0.45 lb a.e.
[17] = 4.0X Rate, L2711R2X, 1X~0.45 lb a.e.
[18] = 4.5X Rate, L2084R2, 1X~0.45 lb a.e.
[19] = 4.5X Rate, L2711R2X, 1X~0.45 lb a.e.
[20] = 5.0X Rate, L2084R2, 1X~0.45 lb a.e.
[21] = 5.0X Rate, L2711R2X, 1X~0.45 lb a.e.
[22] = 5.5X Rate, L2084R2, 1X~0.45 lb a.e.
[23] = 5.5X Rate, L2711R2X, 1X~0.45 lb a.e.
[24] = Average over 1.0X-3.0X Rates, L2084R2
[25] = Average over 1.0X-3.0X Rates, L2711R2X
[26] = Average over 1.0X-5.5X Rates, L2084R2
[27] = Average over 1.0X-5.5X Rates, L2711R2X
[28] = Overall location average, all rates, both cultivars
[29] = 1X side dress (1X~0.19 lb a.e.)
[30] = 2X side dress (1X~0.19 lb a.e.)
[31] = 3X side dress (1X~0.19 lb a.e.)
[32] = 4X side dress (1X~0.19 lb a.e.)

For O=C(O)COc1ccc(Cl)cc1Cl [2,4-D, 2,4-Dichlorophenoxyacetic acid], the Harvested weight ([1]; 1X seed treatment) was 125 g, the “Yield (Bushels/acre at 13% moisture)” value ([1]; 1X seed treatment) was 60.71 Bushels/acre and the Harvested weight ([1]; 2X seed treatment) was 90 g. The “Yield (Bushels/acre at 13% moisture)” value ([1]; 2X seed treatment) was 42.26 Bushels/acre, the Harvested weight ([1]; 3X seed treatment) was 100 g and the “Yield (Bushels/acre at 13% moisture)” value ([1]; 3X seed treatment) was 45.23 Bushels/acre. The Harvested weight ([1]; 4X seed treatment) was 100 g, the “Yield (Bushels/acre at 13% moisture)” value ([1]; 4X seed treatment) was 44.23 Bushels/acre and the Harvested weight ([1]; 5X seed treatment) was 105 g. The “Yield (Bushels/acre at 13% moisture)” value ([1]; 5X seed treatment) was 45.33 Bushels/acre, the Harvested weight ([1]; 6X seed treatment) was 110 g and the “Yield (Bushels/acre at 13% moisture)” value ([1]; 6X seed treatment) was 48.22 Bushels/acre. The Harvested weight ([1]; 7X seed treatment) was 105 g, the “Yield (Bushels/acre at 13% moisture)” value ([1]; 7X seed treatment) was 44.36 Bushels/acre and the Harvested weight ([1]; 8X seed treatment) was 110 g. The “Yield (Bushels/acre at 13% moisture)” value ([1]; 8X seed treatment) was 46.32 Bushels/acre, the Harvested weight ([1]; 9X seed treatment) was 100 g and the “Yield (Bushels/acre at 13% moisture)” value ([1]; 9X seed treatment) was 43.06 Bushels/acre. The Harvested weight ([1]; 10X seed treatment) was 95 g, the “Yield (Bushels/acre at 13% moisture)” value ([1]; 10X seed treatment) was 42.12 Bushels/acre and the “Average Yield” value [2, 4] was 47.77 Bu/A. For the same molecule, the “Repetition 1 Weight” value [2, 4] was 4.3 Lbs, the “Repetition 1 Yield” value [2, 4] was 49.06 Bu/A and the “Repetition 2 Weight” value [2, 4] was 4.1 Lbs. For the same molecule, the “Repetition 2 Yield” value [2, 4] was 46.48 Bu/A, the “Average Yield” value [2, 5] was 46.66 Bu/A and the “Repetition 1 Weight” value [2, 5] was 3.7 Lbs. The “Repetition 1 Yield” value [2, 5] was 42.30 Bu/A, the “Repetition 2 Weight” value [2, 5] was 4.5 Lbs and the “Repetition 2 Yield” value [2, 5] was 51.02 Bu/A. For the same molecule, the “Average Yield” value [2, 6] was 47.65 Bu/A, the “Repetition 1 Weight” value [2, 6] was 3.4 Lbs and the “Repetition 1 Yield” value [2, 6] was 38.79 Bu/A. For the same molecule, the “Repetition 2 Weight” value [2, 6] was 5 Lbs, the “Repetition 2 Yield” value [2, 6] was 56.51 Bu/A and the “Average Yield” value [2, 7] was 52.85 Bu/A. The “Repetition 1 Weight” value [2, 7] was 3.9 Lbs, the “Repetition 1 Yield” value [2, 7] was 44.54 Bu/A and the “Repetition 2 Weight” value [2, 7] was 5.4 Lbs. For the same molecule, the “Repetition 2 Yield” value [2, 7] was 61.16 Bu/A, the “Average Yield” value [2, 8] was 51.64 Bu/A and the “Repetition 1 Weight” value [2, 8] was 4.5 Lbs. The “Repetition 1 Yield” value [2, 8] was 51.23 Bu/A, the “Repetition 2 Weight” value [2, 8] was 4.6 Lbs and the “Repetition 2 Yield” value [2, 8] was 52.04 Bu/A. For the same molecule, the “Repetition 2 Weight” value [2, 9] was 4.1 Lbs, the “Repetition 2 Yield” value [2, 9] was 46.43 Bu/A and the “Average Yield” value ([2]; 2.0X Rate, L2711R2X, 1X~0.45 lb a.e., repetition 2 only) was 46.43 Bu/A. The “Average Yield” value [2, 10] was 38.59 Bu/A, the “Repetition 1 Weight” value [2, 10] was 3.1 Lbs and the “Repetition 1 Yield” value [2, 10] was 35.37 Bu/A. For the same molecule, the “Repetition 2 Weight” value [2, 10] was 3.7 Lbs, the “Repetition 2 Yield” value [2, 10] was 41.81 Bu/A and the “Average Yield” value [2, 11] was 39.75 Bu/A. The “Repetition 1 Weight” value [2, 11] was 3.1 Lbs, the “Repetition 1 Yield” value [2, 11] was 35.29 Bu/A and the “Repetition 2 Weight” value [2, 11] was 3.9 Lbs. The “Repetition 2 Yield” value [2, 11] was 44.21 Bu/A, the “Average Yield” value [2, 12] was 43.14 Bu/A and the “Repetition 1 Weight” value [2, 12] was 3.5 Lbs. For the same molecule, the “Repetition 1 Yield” value [2, 12] was 39.89 Bu/A, the “Repetition 2 Weight” value [2, 12] was 4.1 Lbs and the “Repetition 2 Yield” value [2, 12] was 46.38 Bu/A. The “Average Yield” value [2, 13] was 45.36 Bu/A, the “Repetition 1 Weight” value [2, 13] was 3.7 Lbs and the “Repetition 1 Yield” value [2, 13] was 42.08 Bu/A. The “Repetition 2 Weight” value [2, 13] was 4.3 Lbs, the “Repetition 2 Yield” value [2, 13] was 48.65 Bu/A and the “Repetition 1 Weight” value [2, 14] was 3.4 Lbs. For the same molecule, the “Repetition 1 Yield” value [2, 14] was 38.55 Bu/A, the “Average Yield” value ([2]; 3.5X Rate, L2084R2, 1X~0.45 lb a.e., repetition 1 only) was 38.55 Bu/A and the “Repetition 1 Weight” value [2, 15] was 4.2 Lbs. For the same molecule, the “Repetition 1 Yield” value [2, 15] was 47.77 Bu/A, the “Average Yield” value ([2]; 3.5X Rate, L2711R2X, 1X~0.45 lb a.e., repetition 1 only) was 47.77 Bu/A and the “Repetition 1 Weight” value [2, 16] was 4.5 Lbs. The “Repetition 1 Yield” value [2, 16] was 51.07 Bu/A, the “Average Yield” value ([2]; 4.0X Rate, L2084R2, 1X~0.45 lb a.e., repetition 1 only) was 51.07 Bu/A and the “Repetition 1 Weight” value [2, 17] was 5.4 Lbs. For the same molecule, the “Repetition 1 Yield” value [2, 17] was 61.28 Bu/A, the “Average Yield” value ([2]; 4.0X Rate, L2711R2X, 1X~0.45 lb a.e., repetition 1 only) was 61.28 Bu/A and the “Repetition 1 Weight” value [2, 18] was 4.7 Lbs. For the same molecule, the “Repetition 1 Yield” value [2, 18] was 53.28 Bu/A, the “Average Yield” value ([2]; 4.5X Rate, L2084R2, 1X~0.45 lb a.e., repetition 1 only) was 53.28 Bu/A and the “Repetition 1 Weight” value [2, 19] was 4.7 Lbs. For the same molecule, the “Repetition 1 Yield” value [2, 19] was 53.40 Bu/A, the “Average Yield” value ([2]; 4.5X Rate, L2711R2X, 1X~0.45 lb a.e., repetition 1 only) was 53.40 Bu/A and the “Repetition 1 Weight” value [2, 20] was 4.1 Lbs. The “Repetition 1 Yield” value [2, 20] was 46.58 Bu/A, the “Average Yield” value ([2]; 5.0X Rate, L2084R2, 1X~0.45 lb a.e., repetition 1 only) was 46.58 Bu/A and the “Repetition 1 Weight” value [2, 21] was 4.3 Lbs. For the same molecule, the “Repetition 1 Yield” value [2, 21] was 48.90 Bu/A, the “Average Yield” value ([2]; 5.0X Rate, L2711R2X, 1X~0.45 lb a.e., repetition 1 only) was 48.90 Bu/A and the “Repetition 1 Weight” value [2, 22] was 4.2 Lbs. The “Repetition 1 Yield” value [2, 22] was 47.67 Bu/A, the “Average Yield” value ([2]; 5.5X Rate, L2084R2, 1X~0.45 lb a.e., repetition 1 only) was 47.67 Bu/A and the “Repetition 1 Weight” value [2, 23] was 4.1 Lbs. The “Repetition 1 Yield” value [2, 23] was 46.48 Bu/A, the “Average Yield” value ([2]; 5.5X Rate, L2711R2X, 1X~0.45 lb a.e., repetition 1 only) was 46.48 Bu/A and the “Repetition 2 Weight” value [2, 24] was 4.3 Lbs. The “Repetition 2 Yield” value [2, 24] was 48.65 Bu/A, the “Repetition 2 Weight” value [2, 25] was 4.4 Lbs and the “Repetition 2 Yield” value [2, 25] was 50.29 Bu/A. For the same molecule, the “Average Yield” value [2, 26] was 46.59 Bu/A, the “Repetition 1 Weight” value [2, 26] was 4.0 Lbs and the “Repetition 1 Yield” value [2, 26] was 45.15 Bu/A. The “Average Yield” value [2, 27] was 48.89 Bu/A, the “Repetition 1 Weight” value [2, 27] was 4.1 Lbs and the “Repetition 1 Yield” value [2, 27] was 46.89 Bu/A. The “Average Yield” value [2, 28] was 47.74 Bu/A, the “Repetition 1 Weight” value [2, 28] was 4.0 Lbs and the “Repetition 1 Yield” value [2, 28] was 45.97 Bu/A. For the same molecule, the “Repetition 2 Weight” value [2, 28] was 4.4 Lbs, the “Repetition 2 Yield” value [2, 28] was 49.47 Bu/A and the “plant yield (in words)” value ([2]; Table 2a, 2,4-D mixture 1.0X-5.5X vs untreated) was “increases plant yield”. For the same molecule, the “Yield (Bushels/acre at 13% moisture)” value [3, 29] was 58.3 Bushels/acre, the Harvested weight ([3]; 1X side dress (1X~0.19 lb a.e.), 12 rows) was 1292 g and the Percent of control [3, 29] was 110%. For the same molecule, the “Yield (Bushels/acre at 13% moisture)” value [3, 30] was 68.3 Bushels/acre, the Harvested weight ([3]; 2X side dress (1X~0.19 lb a.e.), 8 rows) was 1016 g and the Percent of control [3, 30] was 130%. The “Yield (Bushels/acre at 13% moisture)” value [3, 31] was 62.8 Bushels/acre, the Harvested weight ([3]; 3X side dress (1X~0.19 lb a.e.), 16 rows) was 1844 g and the Percent of control [3, 31] was 120%. For the same molecule, the “Yield (Bushels/acre at 13% moisture)” value [3, 32] was 70.8 Bushels/acre, the Harvested weight ([3]; 4X side dress (1X~0.19 lb a.e.), 16 rows) was 2088 g and the Percent of control [3, 32] was 135%. For the same molecule, the “plant yield (in words)” value ([3]; side dress treatment 1X-4X vs untreated) was “greatly increases plant yield”.
